Patent US8450304B2, “4-azetidinyl-1-heteroaryl-cyclohexanol antagonists of CCR2” (Janssen Pharmaceutica N.V., priority 2008, dated 2013)
pIC50: −log10 of the molar value.

Molecular target: T1, CCR2 (Homo sapiens, UniProt P41597)
T1 construct: host or cells: THP-1 (human monocytic cell line), whole cells
Test: MCP-1 Receptor Binding Assay in THP-1 Cells
Details: 0.5 nM 125I labeled MCP-1, 2 hours at 30° C., read-out: Inhibition of MCP-1 Binding IC50, CCR2 Binding
Experimental: Compounds of the invention were subjected to various representative biological tests. […] MCP-1 Receptor Binding Assay in THP-1 Cells
Human monocytic cell line THP-1 cells were obtained from American Type Culture Collection (Manassas, Va., USA). […] The cell density was maintained […].
1 μM cold MCP-1 was used for nonspecific binding.

T1 sequence (P41597 whole entry): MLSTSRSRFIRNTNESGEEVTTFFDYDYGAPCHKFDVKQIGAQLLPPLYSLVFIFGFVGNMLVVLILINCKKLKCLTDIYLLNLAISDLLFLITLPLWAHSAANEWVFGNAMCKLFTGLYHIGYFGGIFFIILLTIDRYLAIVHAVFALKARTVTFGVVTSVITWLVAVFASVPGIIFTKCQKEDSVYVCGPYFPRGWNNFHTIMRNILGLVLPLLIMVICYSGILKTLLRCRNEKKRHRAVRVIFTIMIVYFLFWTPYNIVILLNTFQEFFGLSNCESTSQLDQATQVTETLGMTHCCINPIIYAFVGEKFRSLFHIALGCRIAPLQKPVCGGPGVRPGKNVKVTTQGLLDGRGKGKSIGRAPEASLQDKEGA

Row | pIC50 | SMILES
1 | 6.70 | Cc1ncc(C2(O)CCC(N3CC(NC(=O)CNC(=O)c4cccc(C(F)(F)F)c4)C3)CC2)s1 (single isomer, unassigned) [Example 41a, N-({1-[4-Hydroxy-4-(2-methyl-thiazol-5-yl)-cyclohexyl]-azetidin-3-ylcarbamoyl}-methyl)-3-trifluoromethyl-benzamide]
2 | 6.47 | C#Cc1ncc(C2(O)CCC(N3CC(NC(=O)CNC(=O)c4cccc(C(F)(F)F)c4)C3)CC2)s1 (single isomer, unassigned) [Example 44a, N-({1-[4-(2-Ethynyl-thiazol-5-yl)-4-hydroxy-cyclohexyl]-azetidin-3-ylcarbamoyl}-methyl)-3-trifluoromethyl-benzamide]
3 | 6.18 | C[S+]([O-])c1ncc(C2(O)CCC(N3CC(NC(=O)CNC(=O)c4cccc(C(F)(F)F)c4)C3)CC2)s1 (single isomer, unassigned) [Example 46, N-({1-[4-Hydroxy-4-(2-methanesulfinyl-thiazol-5-yl)-cyclohexyl]-azetidin-3-ylcarbamoyl}-methyl)-3-trifluoromethyl-benzamide]
4 | 6.59 | CS(=O)(=O)c1ncc(C2(O)CCC(N3CC(NC(=O)CNC(=O)c4cccc(C(F)(F)F)c4)C3)CC2)s1 (single isomer, unassigned) [Example 47a, N-({1-[4-Hydroxy-4-(2-methanesulfonyl-thiazol-5-yl)-cyclohexyl]-azetidin-3-ylcarbamoyl}-methyl)-3-trifluoromethyl-benzamide]
5 | 7.05 | Cc1cc(C2(O)CCC(N3CC(NC(=O)CNC(=O)c4cccc(C(F)(F)F)c4)C3)CC2)sn1 (single isomer, unassigned) [Example 58a, N-({1-[4-Hydroxy-4-(3-methyl-isothiazol-5-yl)-cyclohexyl]-azetidin-3-ylcarbamoyl}-methyl)-3-trifluoromethyl-benzamide]
6 | 7.43 | Cc1ccc(C2(O)CCC(N3CC(NC(=O)CNC(=O)c4cc(F)cc(C(F)(F)F)c4)C3)CC2)cn1 (single isomer, unassigned) [Example 64a, 3-Fluoro-N-({1-[4-hydroxy-4-(6-methyl-pyridin-3-yl)-cyclohexyl]-azetidin-3-ylcarbamoyl}-methyl)-5-trifluoromethyl-benzamide]
7 | 6.48 | Cc1ccc(C2(O)CCC(N3CC(NC(=O)CNC(=O)c4cc(C(F)(F)F)cc(C(F)(F)F)c4)C3)CC2)cn1 (single isomer, unassigned) [Example 66a, N-({1-[4-Hydroxy-4-(6-methyl-pyridin-3-yl)-cyclohexyl]-azetidin-3-ylcarbamoyl}-methyl)-3,5-bis-trifluoromethyl-benzamide]
8 | 6.43 | O=C(CNC(=O)c1cc(C(F)(F)F)cc(C(F)(F)F)c1)NC1CN(C2CCC(O)(c3nccs3)CC2)C1 (single isomer, unassigned) [Example 67a, N-{[1-(4-Hydroxy-4-thiazol-2-yl-cyclohexyl)-azetidin-3-ylcarbamoyl]-methyl}-3,5-bis-trifluoromethyl-benzamide]
9 | 6.62 | Cc1ccc(C2(O)CCC(N3CC(NC(=O)CNC(=O)c4cc(C(F)(F)F)ccc4C(F)(F)F)C3)CC2)cn1 (single isomer, unassigned) [Example 69a, N-({1-[4-Hydroxy-4-(6-methyl-pyridin-3-yl)-cyclohexyl]-azetidin-3-ylcarbamoyl}-methyl)-2,5-bis-trifluoromethyl-benzamide]
10 | 6.23 | Cc1ccc(C2(O)CCC(N3CC(NC(=O)CNC(=O)c4cc(C(F)(F)F)ccc4Cl)C3)CC2)cn1 (single isomer, unassigned) [Example 70a, 2-Chloro-N-({1-[4-hydroxy-4-(6-methyl-pyridin-3-yl)-cyclohexyl]-azetidin-3-ylcarbamoyl}-methyl)-5-trifluoromethyl-benzamide]

More lines, now with the values behind:

Row | SMILES | pIC50
11 | O=C(CNC(=O)c1cccc(C(F)(F)F)c1)NC1CN(C2CCC(O)(c3ccc(OCc4ccccc4)nc3)CC2)C1 (single isomer, unassigned) [Example 7a, N-({1-[4-(6-Benzyloxy-pyridin-3-yl)-4-hydroxy-cyclohexyl]-azetidin-3-ylcarbamoyl}-methyl)-3-trifluoromethyl-benzamide] | 5.72
12 | O=C(CNC(=O)c1cccc(C(F)(F)F)c1)NC1CN(C2CCC(O)(c3ccc(Br)cn3)CC2)C1 (single isomer, unassigned) [Example 25a, N-({1-[4-(5-Bromo-pyridin-2-yl)-4-hydroxy-cyclohexyl]-azetidin-3-ylcarbamoyl}-methyl)-3-trifluoromethyl-benzamide] | 5.51
13 | COc1ncc(C2(O)CCC(N3CC(NC(=O)CNC(=O)c4cccc(C(F)(F)F)c4)C3)CC2)cn1 (single isomer, unassigned) [Example 28a, N-({1-[4-Hydroxy-4-(2-methoxy-pyrimidin-5-yl)-cyclohexyl]-azetidin-3-ylcarbamoyl}-methyl)-3-trifluoromethyl-benzamide] | 5.96
14 | COc1ncc(C2(O)CCC(N3CC(NC(=O)CNC(=O)c4cccc(C(F)(F)F)c4)C3)CC2)c(OC)n1 (single isomer, unassigned) [Example 29a, N-({1-[4-(2,4-Dimethoxy-pyrimidin-5-yl)-4-hydroxy-cyclohexyl]-azetidin-3-ylcarbamoyl}-methyl)-3-trifluoromethyl-benzamide] | 4.62
15 | Cn1cc(Br)c(C2(O)CCC(N3CC(NC(=O)CNC(=O)c4cccc(C(F)(F)F)c4)C3)CC2)n1 (single isomer, unassigned) [Example 31a, N-({1-[4-(4-Bromo-1-methyl-1H-pyrazol-3-yl)-4-hydroxy-cyclohexyl]-azetidin-3-ylcarbamoyl}-methyl)-3-trifluoromethyl-benzamide] | 6.36
16 | O=C(CNC(=O)c1cccc(C(F)(F)F)c1)NC1CN(C2CCC(O)(c3ncc(CO)s3)CC2)C1 (single isomer, unassigned) [Example 35a, N-({1-[4-Hydroxy-4-(5-hydroxymethyl-thiazol-2-yl)-cyclohexyl]-azetidin-3-ylcarbamoyl}-methyl)-3-trifluoromethyl-benzamide] | 6.62
17 | O=C(CNC(=O)c1cccc(C(F)(F)F)c1)NC1CN(C2CCC(O)(c3nc4ccc(Br)cc4s3)CC2)C1 (single isomer, unassigned) [Example 36a, N-({1-[4-(6-Bromo-benzothiazol-2-yl)-4-hydroxy-cyclohexyl]-azetidin-3-ylcarbamoyl}-methyl)-3-trifluoromethyl-benzamide] | 8.42
18 | Cc1csc(C2(O)CCC(N3CC(NC(=O)CNC(=O)c4cccc(C(F)(F)F)c4)C3)CC2)n1 (single isomer, unassigned) [Example 38a, N-({1-[4-Hydroxy-4-(4-methyl-thiazol-2-yl)-cyclohexyl]-azetidin-3-ylcarbamoyl}-methyl)-3-trifluoromethyl-benzamide] | 6.43
19 | C[Si](C)(C)c1ncc(C2(O)CCC(N3CC(NC(=O)CNC(=O)c4cccc(C(F)(F)F)c4)C3)CC2)s1 (single isomer, unassigned) [Example 39a, N-({1-[4-Hydroxy-4-(2-trimethylsilanyl-thiazol-5-yl)-cyclohexyl]-azetidin-3-ylcarbamoyl}-methyl)-3-trifluoromethyl-benzamide] | 7.89
20 | O=C(CNC(=O)c1cccc(C(F)(F)F)c1)NC1CN(C2CCC(O)(c3cccnc3)CC2)C1 (stereo not shown) [Example 15, N-{[1-(4-Hydroxy-4-pyridin-3-yl-cyclohexyl)-azetidin-3-ylcarbamoyl]-methyl}-3-trifluoromethyl-benzamide] | 6.72
21 | COc1ccc(C2(O)CCC(N3CC(NC(=O)CNC(=O)c4ccc(C(F)(F)F)cc4)C3)CC2)cn1 (stereo not shown) [Example 16, N-({1-[4-Hydroxy-4-(6-methoxy-pyridin-3-yl)-cyclohexyl]-azetidin-3-ylcarbamoyl}-methyl)-4-trifluoromethyl-benzamide] | 5.19
22 | COc1ccc(C2(O)CCC(N3CC(NC(=O)CNC(=O)c4cc(F)c(F)c(F)c4)C3)CC2)cn1 (stereo not shown) [Example 17, 3,4,5-Trifluoro-N-({1-[4-hydroxy-4-(6-methoxy-pyridin-3-yl)-cyclohexyl]-azetidin-3-ylcarbamoyl}-methyl)-benzamide] | 5.19
23 | COc1ccc(C2(O)CCC(N3CC(NC(=O)CNC(=O)c4ccc(Cl)c(Cl)c4)C3)CC2)cn1 (stereo not shown) [Example 18, 3,4-Dichloro-N-({1-[4-hydroxy-4-(6-methoxy-pyridin-3-yl)-cyclohexyl]-azetidin-3-ylcarbamoyl}-methyl)-benzamide] | 6.92
24 | COc1ccc(C2(O)CCC(N3CC(NC(=O)CNC(=O)c4cc(F)cc(F)c4)C3)CC2)cn1 (stereo not shown) [Example 19, 3,5-Difluoro-N-({1-[4-hydroxy-4-(6-methoxy-pyridin-3-yl)-cyclohexyl]-azetidin-3-ylcarbamoyl}-methyl)-benzamide] | 5.37
25 | COc1ccc(C2(O)CCC(N3CC(NC(=O)CNC(=O)c4ccc5c(c4)OCO5)C3)CC2)cn1 (stereo not shown) [Example 20, Benzo[1,3]dioxole-5-carboxylic acid ({1-[4-hydroxy-4-(6-methoxy-pyridin-3-yl)-cyclohexyl]-azetidin-3-ylcarbamoyl}-methyl)-amide] | 5.16
26 | COc1ccc(C2(O)CCC(N3CC(NC(=O)CNC(=O)c4cccc(C#N)c4)C3)CC2)cn1 (stereo not shown) [Example 21, 3-Cyano-N-({1-[4-hydroxy-4-(6-methoxy-pyridin-3-yl)-cyclohexyl]-azetidin-3-ylcarbamoyl}-methyl)-benzamide] | 5.12
27 | COc1ccc(C2(O)CCC(N3CC(NC(=O)CNC(=O)c4cccc(C)c4)C3)CC2)cn1 (stereo not shown) [Example 22, N-({1-[4-Hydroxy-4-(6-methoxy-pyridin-3-yl)-cyclohexyl]-azetidin-3-ylcarbamoyl}-methyl)-3-methyl-benzamide] | 5.64
28 | COc1cccc(C(=O)NCC(=O)NC2CN(C3CCC(O)(c4ccc(OC)nc4)CC3)C2)c1 (stereo not shown) [Example 23, N-({1-[4-Hydroxy-4-(6-methoxy-pyridin-3-yl)-cyclohexyl]-azetidin-3-ylcarbamoyl}-methyl)-3-methoxy-benzamide] | 4.84
